Values joined by “and” are separate entries in the source; they are usually repeats but may differ in a detail not shown here. Equal values may be shown once. “Also recorded” adds a separate entry of the source.
Tests used:
[1] = Pharmacokinetics in mice (plasma, liver, brain); conditions: i.p. dosing at 3 mg/kg
[2] = test system: mice subjected to chronic restraint stress (CRS); assay: Y-maze alternation task, chronic restraint stress (CRS) mice; type: in vivo, mouse
Method: C57/B16 mice, males and females were ordered from Jackson Laboratories at 8 weeks old and were kept in normal housing conditions (12 h light ON cycle starting at 7 am/water and food ad libitum) for one week. During this week, animals were single housed and handled to reduce the anxiety-like response toward the experimenter. To induce a working memory deficit, mice were subjected to a chronic restraint stress protocol (CRS). They were placed in a 50 ml Falcon® tube, twice a day, for 1 hour during their diurnal cycle. The time of occurrence of the stress was randomized every day to avoid predictability. CRS was not applied on testing days. Y-maze test occurred 15 hours minimum after the last stressor.
Mice were first habituated to the Y-maze apparatus and distal cues during 2 consecutive days over a 10 min free exploration session (one session per day). The next day, animals performed a training session consisting in seven successive trials separated by a 30 s inter-trial interval (ITI); during this training session, mice were familiarized with the experimental procedure (opening and closing of the doors and confinement into the goal arms). For each trial, mice remained in the start-box for a 30 s ITI. Then, the door was opened and the mouse was allowed to enter freely one of the two goal arms; the chosen arm was closed and the choice was recorded. After a 30 s confinement period into the chosen arm, the mouse was removed and brought back to the start-box for a second trial identical to the first one and this procedure was repeated over the series of trials.
The same general procedure used in the training session was implemented 24 h later, except that the ITI was lengthened to 90 s. For this experiment, animals were acutely injected i.p. with vehicle or αPAM, 30 minutes before the beginning of the test. To dissociate memory deficits from an eventual progressive loss of motivation to alternate over the series, an 8th trial was added to the series which was separated from the 7th trial by a shorter ITI (5 s). All animals failing to alternate at the 8th trial were excluded. The mean alternation rate was calculated and was expressed in percentage (number of alternation done by the animal/total number of alternation possible×100)±SEM. The percentage of alternation during the entire task is considered as an index of working memory performance (50% of being a random alternation rate). Factorial ANOVA was applied to the data to reveal differences between groups. If the ANOVA was significant for group effect (p<0.05), Scheffe post-hoc analysis were conducted to identify which groups are different from each other.
(§1) All drugs were diluted in a vehicle solution containing 85% H2O, 14% propylene glycol (Sigma Aldrich) and 1% Tween 80 (Sigma Aldrich). Working solutions were prepared at a concentration of 10 mg/mL and administered i.p. adjusted to the body weight of each animal. Doses used were either 1, 5, 10 or 20 mg/kg. For all Y maze experiments, animals were acutely injected i.p. with vehicle or αPAM, 30 minutes before the beginning of the test.

HEK293 = assay: Cytotoxicity assay (CellTiter-Glo), HEK293; type: cell-based, human; conditions: 48 hours incubation
Method: (§2) Human liver hepatocellular carcinoma (HEPG2) and human embryonic kidney 293 (HEK293) cell lines were purchased (ATCC) and cultured in 75 cm2 flasks (CellStar). Cells were grown in DMEM/High Glucose (Hyclone, #SH3024301) media to which non-essential amino acids (Hyclone, #SH30238.01), 10 mM HEPES (Hyclone, #SH302237.01), 5×106 units of penicillin and streptomycin (Hyclone, #SV30010), and 10% of heat inactivated fetal bovine serum (Gibco, #10082147) were added. Cells were harvested using 0.05% Trypsin (Hyclone, #SH3023601), washed with PBS, and dispensed into sterile white, optical bottom 384-well plates (NUNC, #142762). After three hours, small molecule solutions were transferred with a Tecan Freedom EVO liquid handling system equipped with a 100 nL pin tool (V&P Scientific). The controls (E)-10-(bromotriphenylphosphoranyl)decyl 4-(4-(tert-butyl)phenyl)-4-oxobut-2-enoate (400 μM in DMSO, positive control) and DMSO (negative control). The cells were incubated for 48 hours followed by the addition of CellTiter-Glo™, a luminescence-based cell viability assay (Promega, Madison, Wis.). All luminescence readings were performed on a Tecan Infinite M1000 plate reader. The assay was carried out in quadruplet with three independent runs. The data was normalized to the controls and analyzed by nonlinear regression (GraphPad Prism).

[3] = Human liver microsome stability assay; type: in vitro ADME; conditions: 10 μM compound; for half-life at 10 μM: human, liver microsomes, read-out: Half-life (min) (HumanLM)
Method: (§3) Human and mouse liver microsomes were obtained fom BD Gentest.
(§4) Each evaluation included six independent assays carried out three at a time, on two different days
(§5) 2. For a total volume of Microsomal Assay Mixture (MAM) 390 μL, sufficient for seven time points, combine the following
(§6) 3. Sonicate MAM for 5 min and meanwhile thaw microsomes (20 mg/mL) (BD Gentest, Cat #452156) on ice.
(§7) 4. Aliquot 100 μL of ice cold ISTD into 7 separate 1.5 mL conical vials and label them the time points for 0, 10, 20, 40, 60, 90, and 120 min.
(§8) 5. Arrange the timer. Microsomes (Final concentration of 0.5 mg/mL) should be added to all time points except the zero time point.
(§9) 6. Add 50 μL of the MAM solution to the conical vial labelled as zero time point. Place the remaining MAM solution in the incubator (37° C.) for 5 min and initiate the reaction with addition of microsomes (8.8 μL) and record the time.
(§10) 7. At the end of each time interval remove 50 μL and add 100 μL to ISTD in conical vial, sonicate for 10 sec and spin down at 10,000 rpm for 5 minutes.
(§11) 8. Take 100 μL of supernatant and transfer to Spin-X HPLC filter tubes (Corning Incorporated, Cat #8169) and centrifuge at 13,000 rpm for 5 minutes and take 5 μL from this solution and dilute in 495 μL of LCMS grade methanol (Fischer scientific, CAS #67-56-1) in an 2 mL glass auto sampler vial (Microsolv, Cat #95025-WCV) 9. The samples are analyzed by LCMS-8040. (Shimadzu)
(§12) Calculation: From the peak area, calculate the following
(§13) The compounds are tested for the metabolic stability in the Human and Mouse Liver microsomes at 10 μM concentration.

adult male Wistar rats = assay: Spontaneous locomotor activity in rats; type: in vivo, rat; conditions: 10 mg/kg i.p.; for distances traveled in 5-min intervals: 60 min recording; for overall distance traveled during 60 min (spontaneous locomotor activity): vs SOL
Method: (FIG. 23). […] Procedure for the assessment of locomotor activity changes induced by additional ligands in rats. […] The test was performed in the apparatus consisting of four white and opaque Plexiglas chambers (40×25×35 cm) under dim red light (20 lux). Digital camera mounted above the apparatus recorded the animal activity, which was tracked and analyzed using ANY-maze Video Tracking System software (Stoelting Co, Wood Dale, Ill., USA). […] The 10 mg/kg dose of each of ligands or SOL were applied i.p. in the 10 ml/kg volume and a single rat was immediately placed in the center of the chamber. The activity was tracked for a total of 60 min. Chambers were cleaned with diluted ethanol after every trial. Statistical analysis (one-way ANOVA and post hoc SNK tests where applicable) was performed in SigmaPlot 11 software (Systat, USA).

HEPG2 = assay: Cytotoxicity assay (CellTiter-Glo), HEPG2; type: cell-based, human; conditions: 48 hours incubation
Method: as §2

[4] = Mouse liver microsome stability assay; type: in vitro ADME; conditions: 10 μM compound; for half-life at 10 μM: mouse, liver microsomes, read-out: Half-life (min) (MouseLM)
Method: as §3, §4, §5, §6, §7, §8, §9, §10, §11, §12, §13

[5] = test system: Female Swiss Webster mice; assay: Rotarod sensorimotor / locomotor coordination; type: in vivo, mouse; conditions: 40 mg/kg oral gavage; 15 rpm, 3 min; 10, 30, 60 min after dosing
Method: Female Swiss Webster mice (10 weeks of age) from Charles River Laboratory, WIL, MA were used for the experiments. The animals were housed under specific pathogen-free conditions, under standard conditions of humidity, temperature and a controlled 12 h light and dark cycle and had free access to food and water. The sensorimotor rotarod test was carried out 10, 30 and 60 minutes after the injection. Mice were tested on a rotarod at 15 rpm for maximum 3 min and the time of fall was recorded. Falling before the 3 minutes period of testing assesses of locomotor coordination impairment induced by the compound.
Mice (N=10/group) received a single administration via oral gavage of test compound (40 mg/kg), diazepam (5 mg/kg), or vehicle (2% polyethylene glycol, 2.5% hydroxypropylmethyl cellulose solution).

C57B1/6 male mice = assay: Forced swim test (FST); type: in vivo, mouse; conditions: 10 mg/kg i.p. 24, 20, 1 hour before testing; vs vehicle
Method: C57B1/6 male mice were ordered from Jackson Laboratories at 8 weeks-old and were group housed (4-5 mice/cage) under normal housing conditions (12 h light ON cycle starting at 7 am/water and food ad libitum) for one week. During this week, animals were handled in order to habituate them to the experimenter and to reduce their anxiety-like response during behavioral testing.
as §1, with “20” for “10”, “5 or” for “5,”, “10” for “10 or 20”, “FST” for “Y maze”, “were” for “were acutely”, “αPAM.” for “αPAM, 30 minutes before the beginning of the test.”
Mice were tested in the forced swim test (FST) (measure of despair-like behavior used for the assessment of antidepressant efficacy). Animals were sub-chronically injected three times (24, 20 and 1 hour before testing) as per standard methods in the field for testing potential antidepressant compounds.
One hour after the last injection, mice were placed in an inescapable transparent tank filled with water (25 cm, 25-26° C.), where they are unable to touch the bottom and unable to jump out of the tank. Animal were recorded for a period of 6 minutes and a manual count of the immobile time in the tank was measured for the 2-6 minutes period by an experimenter blinded to the mouse treatment history. Immobility is defined as the minimum amount of movement to stay afloat. Compounds that reduced immobility in the FST are considered to have potential antidepressant actions.

Compound | molar concentration range reached in mouse brain tissue [1] | Alternation rate (%) ([2]; Dose 5 mg/kg) | HEK293 LD50 (HEK293) | % left after 2 hr. (Human LM) [3] | half-life at 10 μM [3] | distances traveled in 5-min intervals (adult male Wistar rats) | overall distance traveled during 60 min (spontaneous locomotor activity) (adult male Wistar rats) | HEPG2 LD50 (HEPG2) | % left after 2 hr. (MouseLM) [4] | half-life at 10 μM [4] | sensorimotor impairment on rotarod (time of fall) [5] | Alternation rate (%) ([2]; Dose 10 mg/kg) | time spent immobile in the FST (C57B1/6 male mice) | Half-life (min) (HumanLM) [3] | Half-life (min) (MouseLM) [4]
CNC(=O)c1ncn2c1CN=C(c1ccccc1F)c1cc(Br)ccc1-2 [RV-II-04] | micromolar concentrations | 54.1% | >200 µM | 80.2 ± 0.4% | 595 ± 157 min | induced sedation during nearly the whole period of recording | profound sedation; also recorded: sedated when compared to all other groups | >200 µM | 73.7 ± 0.3% | 302 ± 33 min | most severe motor impairment | – | – | – | –
Cc1noc(-c2ncn3c2[C@@H](C)N=C(c2ccccn2)c2cc(Br)ccc2-3)n1 [GL-II-54, (R)-5-(8-bromo-4-methyl-6-(pyridin-2-yl)-4H-benzo[f]imidazo[1,5-a][1,4]diazepin-3-yl)-3-methyl-1,2,4-oxadiazole] | high submicromolar to low micromolar values | – | >400 µM | 76.0 ± 0.2% | 404 ± 61 min | – | – | >400 µM | – | 2330 ± 1110 min | no sensorimotor impairment | 66.66% | significant decrease in immobility time; also recorded: significant antidepressant-like action | – | –
C#Cc1ccc2c(c1)C(c1ccccc1F)=N[C@@H](C)c1c(C(=O)NC)ncn1-2 [MP-III-023, (S)-8-ethynyl-6-(2-fluorophenyl)-N,4-dimethyl-4H-benzo[f]imidazo[1,5-a][1,4]diazepine-3-carboxamide] | micromolar concentrations | 62.5% | >200 µM | – | – | induced sedation during nearly the whole period of recording | profound sedation | >200 µM | 84.6% and 84.6 ± 0.2% | – | most severe motor impairment | – | – | 1790 ± 40 min | 846 ± 5 min
